Legend:
[1] = system: SK-Hep-1 cell; assay: Bioprobing and bioimaging, fluorescence microscopy of SK-Hep-1 cell; assay type: cell-based; settings: for fluorescence signal in SK-Hep-1 cell: 48 hours incubation, nanodot solutions 20 mM, different excitation light sources
Procedure: SK-Hep-1 cell was incubated under 37° C. for 12 hours (overnight). Then avidin (purchased from Sigma) was added into the SK-Hep-1 cell to form a cell culture. […] Then the cell was fixed by paraformaldehyde.
SK-Hep-1 cell was incubated under 37° C. for 12 hours (overnight). Then avidin-FITC (purchased from Sigma) was added into the SK-Hep-1 cell to form a cell culture.
SK-Hep-1 cell was incubated under 37° C. for 12 hours (overnight). Then the 3-aminopropyltriethoxysilane nanodot solution (20 mM) prepared in example 4 and the avidin modified 3-aminopropyltriethoxysilane nanodot solution (20 mM) were added into this SK-Hep-1 cell to form two cell cultures respectively. […] Then the cell was fixed by paraformaldehyde. […] Referring to FIG. 10, FIGS. 10(a)-(d) show the SK-Hep-1 cell added with 3-aminopropyltriethoxysilane nanodot solution. FIGS. 10(m)-(p) show the SK-Hep-1 cell added with avidin modified 3-aminopropyltriethoxysilane nanodot solution. […] Therefore, the fluorescence signal of FIGS. 10(b)-(d) and (n)-(p) resulted from the nanodot. In addition, FIGS. 10(i)-(I) show the SK-Hep-1 cell added with avidin-FITC. […] FIGS. 13(a)-(c) show the images of the SK-Hep-1 cell added with 3-aminopropyltriethoxysilane nanodot solution and continuously irradiated with excitation light, wherein FIGS. 13(a)-(c) are the images observed at 0 minutes, 2 minutes and 5 minutes respectively. FIGS. 13(d)-(f) show the images of the SK-Hep-1 cell added with avidin-FITC and continuously irradiated with excitation light, wherein FIGS. 13(d)-(f) are the images observed at 0 minutes, 2 minutes and 5 minutes respectively. FIGS. 13(g)-(i) show the images of the SK-Hep-1 cell added with avidin modified 3-aminopropyltriethoxysilane nanodot solution and continuously irradiated with excitation light, wherein FIGS. 13(g)-(i) are the images observed at 0 minutes, 2 minutes and 5 minutes respectively. […] Therefore, the nanodot has better photo stability.

[2] = system: SK-Hep-1 cell; assay: Stability measurement of fluorescence under continuous excitation light in SK-Hep-1 cell; assay type: cell-based; settings: continuously irradiated with excitation light, observed at 2 minutes and 5 minutes versus 0 minutes
Procedure: SK-Hep-1 cell was incubated under 37° C. for 12 hours (overnight). Then the 3-aminopropyltriethoxysilane nanodot solution (20 mM) prepared in example 4 and the avidin modified 3-aminopropyltriethoxysilane nanodot solution (20 mM) were added into this SK-Hep-1 cell to form two cell cultures respectively. […] Then the cell was fixed by paraformaldehyde. […] Referring to FIG. 10, FIGS. 10(a)-(d) show the SK-Hep-1 cell added with 3-aminopropyltriethoxysilane nanodot solution. FIGS. 10(m)-(p) show the SK-Hep-1 cell added with avidin modified 3-aminopropyltriethoxysilane nanodot solution. […] Therefore, the fluorescence signal of FIGS. 10(b)-(d) and (n)-(p) resulted from the nanodot. In addition, FIGS. 10(i)-(I) show the SK-Hep-1 cell added with avidin-FITC. […] FIGS. 13(a)-(c) show the images of the SK-Hep-1 cell added with 3-aminopropyltriethoxysilane nanodot solution and continuously irradiated with excitation light, wherein FIGS. 13(a)-(c) are the images observed at 0 minutes, 2 minutes and 5 minutes respectively. FIGS. 13(d)-(f) show the images of the SK-Hep-1 cell added with avidin-FITC and continuously irradiated with excitation light, wherein FIGS. 13(d)-(f) are the images observed at 0 minutes, 2 minutes and 5 minutes respectively. […]

Substance | fluorescence signal in SK-Hep-1 cell [1] | fluorescence after continuous irradiation (photo stability) [2] | effect of avidin modification on entry into cells ([1]; FIGS. 10(n)-(p) compared with FIGS. 10(b)-(d), SK-Hep-1 cell, 48 hours)
avidin | no fluorescence signal | – | –
avidin modified 3-aminopropyltriethoxysilane nanodot: 3-aminopropyltriethoxysilane nanodot of example 4 modified with avidin | significant multiphoton fluorescence with red, green and blue lights emitted | only became slightly weak | enhance the efficiency of the nanodot to enter into cells and aggregate in cells
avidin-FITC: avidin-FITC purchased from Sigma; FITC is a conventional organic fluorescent dye widely applied in bioimaging | could not emit blue and red fluorescence | nearly no fluorescence | –

— patent US9303049B2, “Nanodot and method for manufacturing the same” (National Sun Yat-sen University, priority 2013, dated 2016)
